Data taken from patent publication US11667645B2, “Granzyme B directed imaging and therapy” (CytoSite Biopharma Inc., priority 2018, dated 2023).
Read-outs that look alike come from different tables or passages of the source.

Columns and labels:
[1] = biological target: Granzyme B (human lymphocytes) (Homo sapiens (Human), UniProt P10144); assay: human Granzyme B biochemical assay; details: read-out: IC50
Outline: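 Fluorogenic Ac-IETD-AFC cleavage (Ex 400/Em 505 nm) read after 60 min at 22 °C, following 30 min, 22 °C enzyme–compound pre-incubation. Working stocks: enzyme 10 nM in 0.1% BSA buffer, substrate 800 µM, compound 8 points, 3.16-fold from 40 µM. Controls set 0% (DMSO) and 100% (standard inhibitor) inhibition; IC50 fitted.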

[2] = metabolic stability assay using liver microsomes; type: in vitro ADME; details: human liver microsomes, with NRS at 37° C.
Experimental: In addition, compounds of Formula I-VIII described above are also tested in the metabolic stability assay using liver microsomes, as provided below.
Buffer pH7.4: Prepare 1 (M) KH2PO4 and 1 (M) K2HPO4. Titrate 1(M) K2HPO4 with 1 (M) KH2PO4 to obtain pH 7.40. Dilute this buffer 10 fold in Water (30 ml buffer+270 ml of water) to obtain 100 mM phosphate buffer. Adjust pH to 7.40±0.02 using 5(N) HCl or 5(N) NaOH.
NADPH Regeneration System (NRS): Prepare a solution containing 13 mM NADP, 33 mM Glucose-6-phosphate, 33 mM MgCl2 and 4 U/ml Glucose-6-phosphate dehydrogenase in buffer.
Liver Microsome (LM) suspension: Thaw LM vial on ice, then mix 1.0 ml LM (20 mg/ml) with 19 ml buffer [final LM Conc: 1 mg/ml]
LM+NRS suspension: Mix 5.0 ml NRS with 20 ml LM suspension [final LM Conc: 0.8 mg/ml]
System suitability standard: a synthesized compound having Mol wt 686.2 used as System suitability standard. Dissolve this compound in ice-cold acetonitrile to obtain concentration of 0.1 μg/ml and store at 4° C.
Compound Stock: 10 mM in DMSO
Sub stock (100 μM): 4 μl of 10 mM Compound Stock+[…] Acetonitrile
Working plate (2 μM): 10 μl of 100 μM Sub stock+490 μl buffer
Incubate all plastic materials including tips at 37° C. overnight.
Incubate LM suspension and NRS at 37° C. for 15 min before use.
Add 40 μl buffer to the wells of blank plate.
Add 40 μl compound (from working plate) to 0, 5, 10, 20, 30 and 60 min plates.
Initiate reaction by adding 40 μl of LM+NRS suspension in each plate.
Terminate reaction by adding 240 μl ice-cold acetonitrile containing system suitability standard at designated time points. For T=0 add 240 μl ice-cold acetonitrile containing system suitability standard before LM+NRS addition.
Centrifuge (3500 rpm, 20 min and 15° C.) the plates.
Mix 110 μl supernatant with 110 μl water and quantitate amount of Compound in the solution using LC-MS/MS.
For Scaled CLint & Predicted CL use the relevant physiological parameters, as applicable.
Human LM: Corning, Cat #25117
Mouse LM: Xenotech, Cat #M1000
(2) Volumes mentioned in the protocol are representative values and may change depending on number of test compounds.
(3) It is assumed that the compounds are chemically stable in the assay system/buffer.
The metabolic stability assay described above can be performed using different test concentrations, LM Concentrations, or time points.
Certain compounds of this disclosure were tested in the microsomal stability assay provided above.

[3] = Granzyme B (human lymphocytes) 5 nM, substrate Ac-IETD-AFC 200 μM, Cpd incubation with enzyme 30 mins, 22° C., read time 60 mins
[4] = Granzyme B IC50 as repeated in Table 7

Sequence of Granzyme B (human lymphocytes) (P10144 21-247): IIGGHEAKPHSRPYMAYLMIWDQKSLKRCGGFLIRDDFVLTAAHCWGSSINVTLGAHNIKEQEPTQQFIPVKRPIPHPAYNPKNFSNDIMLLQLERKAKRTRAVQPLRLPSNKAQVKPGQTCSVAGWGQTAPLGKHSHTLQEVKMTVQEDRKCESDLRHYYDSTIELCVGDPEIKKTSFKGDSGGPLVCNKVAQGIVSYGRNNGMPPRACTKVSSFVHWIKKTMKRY

SMILES | IC50 [1, 3] | IC50 [1, 4] | HLM % remaining @ 30 min [2]
CC(C)[C@H](NC(=O)c1ccccc1)C(=O)N[C@H]1CCc2cccc3c2N(C1=O)[C@H](C(=O)NCc1c[nH]nn1)C3 [Compound C036, (2S,5S)-5-((S)-2-Benzoylamino-3-methyl-butyrylamino)-4-oxo-1,2,4,5,6,7-hexahydro-azepino[3,2,1-hi]indole-2-carboxylic acid (1H-[1,2,3]triazol-4-ylmethyl)-amide] | 1 to 300 nM | 1 to 300 nM | *** (the symbol “***” indicates a remaining percentage of 71-100%)
CC[C@H](C)[C@H](NC(=O)COCCF)C(=O)N[C@H]1COc2cccc3c2N(C1=O)[C@H](C(=O)NCc1c[nH]nn1)C3 [Compound C099, (1S,8S)-8-{(2S,3S)-2-[2-(2-Fluoro-ethoxy)-acetylamino]-3-methyl-pentanoylamino}-9-oxo-1,2,8,9-tetrahydro-7H-6-oxa-9a-aza-benzo[cd]azulene-1-carboxylic acid (1H-[1,2,3]triazol-4-ylmethyl)-amide] | 1 to 300 nM | 1 to 300 nM | *** (the symbol “***” indicates a remaining percentage of 71-100%)
